In brackets after ≈: the same amount, converted by molar mass. Entries after “also recorded” stand apart in the source; their conditions may differ. Read-outs that look alike come from different tables or passages of the source.
Columns and labels:
HCT116 CRC cells = settings: previous study (Khayat et al.); cited from earlier work
[1] = test system: CYP450 metabolizing enzymes (3A4, 2D6, and 2C9); settings: previous study; cited from earlier work
PC3 prostate cancer = settings: previous study (Khayat et al.); cited from earlier work
[2] = previous study profiling; cited from earlier work
MCF7 breast cancer = settings: previous study (Khayat et al.); cited from earlier work
[3] = test system: NB4, HL60, and KG1a leukemia cell lines; settings: previous study (Khayat et al.); range over three lines; cited from earlier work
[4] = Maximum kinetic aqueous solubility; assay type: physicochemical; settings: 2% DMSO/PBS, pH 7.4, read-out: Max. aq. Sol.
Description: Solubility assays were performed using Millipore MultiScreen® HTS-PFC Filter Plates designed for solubility assays (EMD Millipore, Billerica, MA). Assays were run in triplicate. The 96-well plates consist of two chambers separated by a filter. Liquid handling was performed using JANUS® Verispan and MTD workstations (Perkin Elmer, Waltham, MA). 4 μL of compound (Id) solution (10 mM in DMSO) was added to 196 μL of phosphate buffer (45 mM potassium phosphate, 45 mM sodium acetate, 45 mM ethanolamine, pH=7.4) in the top chamber to give a final DMSO concentration of 2% and a theoretical drug concentration of 200 μM. Plates were gently shaken for 90 min and then subjected to vacuum. Insoluble drug was captured on the filter. 160 μL of the filtrate was transferred to 96-well Griener UV Star® analysis plates (Sigma-Aldrich, St. Louis, MO) containing 40 μL of acetonitrile. The test compound concentration in the filtrates was measured by UV absorbance on a SpectraMax® Plus microplate reader (Molecular Devices, Sunnyvale, CA) using Softmax Pro software v.5.4.5. Absorbances at 5 wavelengths (280, 300, 320, 340, and 360 nm) were summed to generate the UV signal. Standard curves were generated by adding 4 μL of five concentrations of test compound in DMSO to 40 μL of acetonitrile in UV Star plates followed by 156 μL of the appropriate solubility medium. Analysis and statistics were performed using GraphPad® Prism v.5.04. Data were reported as the maximum concentration observed in the filtrate.

caspase-3 = settings: concentration of 1 μM; previous study; cited from earlier work
cell cycle = settings: concentration of 1 μM; previous study; cited from earlier work
CYP3A4 = biological target: T1, CYP3A4 (Homo sapiens, UniProt P08684); test: CYP450 3A4 inhibition; assay type: in vitro ADME; settings: recombinant CYP3A4 expressed in insect supersomes, probe testosterone, expressed enzyme, testosterone substrate
T1 construct: purchased Fisher Scientific, Waltham, MA; host or cells: insect cells (supersomes)
Description: (§1) The compound (Id) was assessed for its ability to inhibit the three major human CYP450 enzymes, 3A4, 2D6 and 2C9. Assays were run in triplicate. Expressed enzymes in insect supersomes (Fisher Scientific, Waltham, MA) were used to minimize non-specific binding and membrane partitioning issues. The 3A4 assay uses testosterone as a substrate and analysis was performed by LC/MS/MS on a Waters Xevo TQ instrument as described above using positive electrospray ionization. Assay acceptance criteria was 20% for all standards and 25% for the LLOQ. The 2D6 and 2C9 assays use fluorescent substrates (3-[2-(N,N-diethylamino)ethyl]-7-methoxy-4-methylcoumarin for 2D6; 7-methoxy-4-(trifluoromethyl) coumarin for 2C9) and were analyzed on an Envision plate reader. GraphPad® Prism v 5.04 was used for nonlinear fitting of data to generate IC50 values.

HCT116 = test: Annexin V apoptosis assay (flow cytometry), HCT116; assay type: cell-based, human; settings: IC50 and 2×IC50, 48 h, vs basal conditions; dose dependent
Description: (§2) Apoptosis assay for colorectal carcinoma cell lines model was performed as follows. Cells were cultured in T25 culture flasks at a density of 3×10^5 cells for DLD-1, 4×10^5 cells for HCT116, and 5×10^5 cells for HT29 cells and treated with IC50 and 2×IC50 of compound (Id) for 48 h. The experiments were performed in triplicates. To measure apoptosis, an Annexin V APC staining assay (BD Biosciences, San Jose, CA, USA) was performed according to the manufacturer's recommendations, and 10,000 events were acquired using a FACSAria III flow cytometer (BD Biosciences, San Jose, CA, USA).

CYP2D6 = biological target: T2, CYP2D6 (Homo sapiens, UniProt P10635); test: CYP450 2D6 inhibition; assay type: in vitro ADME; settings: recombinant CYP2D6 expressed in insect supersomes, probe 3-[2-(N,N-diethylamino)ethyl]-7-methoxy-4-methylcoumarin, expressed enzyme, fluorescent substrate
T2 construct: purchased Fisher Scientific, Waltham, MA; host or cells: insect cells (supersomes)
Description: as §1

CYP2C9 = biological target: T3, CYP2C9 (Homo sapiens, UniProt P11712); test: CYP450 2C9 inhibition; assay type: in vitro ADME; settings: recombinant CYP2C9 expressed in insect supersomes, probe 7-methoxy-4-(trifluoromethyl) coumarin, expressed enzyme, fluorescent substrate
T3 construct: purchased Fisher Scientific, Waltham, MA; host or cells: insect cells (supersomes)
Description: as §1

KG1α = test: Annexin V/7AAD apoptosis assay, KG1α; assay type: cell-based, human; settings: approximately 2×IC50, 48 h
Description: (§3) Apoptosis assay for leukemia cells was performed as follows. Cells were cultured in 6-well plates at a density of 3× 10^5 cells per well and treated with approximately 2×IC50 values of compound (Id) for 48 h. The experiments were performed in duplicates. To measure apoptosis, Annexin V APC and 7AAD staining (BD Biosciences, San Jose, CA, USA) was performed according to the manufacturer's recommendations, and 10,000 events were acquired using a FACSCanto flow cytometer (BD Biosciences, San Jose, CA, USA).

HT29 = test: Annexin V apoptosis assay (flow cytometry), HT29; assay type: cell-based, human; settings: IC50 and 2×IC50, 48 h, vs basal conditions; dose dependent
Description: as §2

HL60 = test: Annexin V/7AAD apoptosis assay, HL60; assay type: cell-based, human; settings: approximately 2×IC50, 48 h
Description: as §3

K562 = test: Annexin V/7AAD apoptosis assay, K562; assay type: cell-based, human; settings: approximately 2×IC50, 48 h
Description: as §3

DLD1 = test: Annexin V apoptosis assay (flow cytometry), DLD1; assay type: cell-based, human; settings: IC50 and 2×IC50, 48 h, vs basal conditions; dose dependent
Description: as §2

NB4 = test: Annexin V/7AAD apoptosis assay, NB4; assay type: cell-based, human; settings: approximately 2×IC50, 48 h
Description: as §3

MV4-11 = test: Annexin V/7AAD apoptosis assay, MV4-11; assay type: cell-based, human; settings: approximately 2×IC50, 48 h
Description: as §3

Kasumi-1 = test: Annexin V/7AAD apoptosis assay, Kasumi-1; assay type: cell-based, human; settings: approximately 2×IC50, 48 h
Description: as §3

T2 sequence (P10635 whole entry): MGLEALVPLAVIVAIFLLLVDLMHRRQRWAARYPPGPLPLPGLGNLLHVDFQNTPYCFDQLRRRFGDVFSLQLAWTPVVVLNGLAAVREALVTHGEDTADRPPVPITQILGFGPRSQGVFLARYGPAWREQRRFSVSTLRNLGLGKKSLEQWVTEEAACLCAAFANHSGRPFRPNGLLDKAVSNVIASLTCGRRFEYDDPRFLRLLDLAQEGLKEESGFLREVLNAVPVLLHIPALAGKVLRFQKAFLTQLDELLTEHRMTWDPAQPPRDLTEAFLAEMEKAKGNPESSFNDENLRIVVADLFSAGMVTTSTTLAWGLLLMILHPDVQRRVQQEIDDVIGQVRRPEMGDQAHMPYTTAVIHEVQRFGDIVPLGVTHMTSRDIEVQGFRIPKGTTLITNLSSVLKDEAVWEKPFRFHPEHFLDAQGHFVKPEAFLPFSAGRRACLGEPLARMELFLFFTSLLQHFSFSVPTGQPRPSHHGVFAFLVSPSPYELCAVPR
T3 sequence (P11712 whole entry): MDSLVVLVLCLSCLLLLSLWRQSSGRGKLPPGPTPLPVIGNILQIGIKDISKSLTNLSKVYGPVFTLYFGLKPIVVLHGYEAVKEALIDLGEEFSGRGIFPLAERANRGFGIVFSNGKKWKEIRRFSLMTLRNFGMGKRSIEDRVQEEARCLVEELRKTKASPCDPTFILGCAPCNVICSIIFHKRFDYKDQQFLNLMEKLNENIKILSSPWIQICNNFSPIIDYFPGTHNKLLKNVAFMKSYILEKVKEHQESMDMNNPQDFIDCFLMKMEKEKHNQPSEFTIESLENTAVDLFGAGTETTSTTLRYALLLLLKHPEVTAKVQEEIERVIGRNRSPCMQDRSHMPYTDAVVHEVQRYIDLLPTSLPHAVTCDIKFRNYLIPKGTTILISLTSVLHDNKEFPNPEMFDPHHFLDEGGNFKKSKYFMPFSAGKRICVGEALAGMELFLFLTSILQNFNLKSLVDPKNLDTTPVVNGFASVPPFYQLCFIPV
T1 sequence (P08684 whole entry): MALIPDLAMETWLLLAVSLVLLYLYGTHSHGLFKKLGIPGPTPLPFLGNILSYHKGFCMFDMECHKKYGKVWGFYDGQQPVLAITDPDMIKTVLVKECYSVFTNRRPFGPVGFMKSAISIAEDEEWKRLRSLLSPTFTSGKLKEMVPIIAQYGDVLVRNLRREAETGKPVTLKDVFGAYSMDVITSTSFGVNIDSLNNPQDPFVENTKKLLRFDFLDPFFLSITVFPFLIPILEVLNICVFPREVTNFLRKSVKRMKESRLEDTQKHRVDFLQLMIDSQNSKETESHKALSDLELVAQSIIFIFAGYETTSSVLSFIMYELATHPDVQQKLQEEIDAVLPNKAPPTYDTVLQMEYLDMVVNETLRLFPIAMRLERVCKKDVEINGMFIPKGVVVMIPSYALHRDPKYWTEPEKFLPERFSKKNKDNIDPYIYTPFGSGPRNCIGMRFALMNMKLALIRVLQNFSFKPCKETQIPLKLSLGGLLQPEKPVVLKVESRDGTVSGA

COc1ccc(/C=C2\N=C(C)N(c3ccc(CC(=O)NCc4ccccc4)cc3)C2=O)cc1 [KIM-161, reference compound]
IC50 (HCT116 CRC cells): 0.294 µM | substrate for major CYP450 metabolizing enzymes (3A4, 2D6, and 2C9) [1]: not a substrate | IC50 (PC3 prostate cancer): 2.14 µM | maximum aqueous solubility [2]: 19.9 µM | IC50 (MCF7 breast cancer): 1.14 µM | IC50 [3]: 0.275 to 0.893 µM | solubility kinetic at 90 min [4]: 19.9 µM (≈ 8.75 µg/mL) | apoptosis (caspase-3): promoted apoptosis through activation of caspase-3 | effect on cell cycle (cell cycle): cell cycle arrest at pre-G and G2/M phases

CC1=N/C(=C\c2ccc(C)o2)C(=O)N1c1ccc(CC(=O)NCc2ccccc2)cc1 [Compound (Id), 2-Methyl-4-(5-methyl-2-furyl)methylene-1-[4-(benzylaminocarbonylmethyl)phenyl]-5-oxo-1H-imidazole]
IC50 (CYP3A4): > 10 µM | apoptosis in HCT116 cells (HCT116): increased apoptosis | IC50 (CYP2D6): > 10 µM | IC50 (CYP2C9): > 10 µM | apoptosis in KG1α cells (KG1α): strong apoptosis | apoptosis in HT29 cells (HT29): increased apoptosis | apoptosis in HL60 cells (HL60): strong apoptosis | apoptosis in K562 cells (K562): strong apoptosis | apoptosis in DLD1 cells (DLD1): increased apoptosis | apoptosis in NB4 cells (NB4): strong apoptosis | apoptosis in MV4-11 cells (MV4-11): strong apoptosis | solubility kinetic at 90 min [4]: 79.8 µM (≈ 33 µg/mL) | solubility kinetic at 90 min ([4]; phosphate buffer with 2% DMSO, aqueous buffer, kinetic from dmso stock): 79.8 µM (≈ 33 µg/mL) | apoptosis in Kasumi-1 cells (Kasumi-1): strong apoptosis; also recorded: very strong induction of apoptosis

Reference: patent publication US20250282764A1, “IMIDAZOLE HETEROCYCLE BASED COMPOUNDS AND METHODS OF TREATING CANCER” (King Abdulaziz University, priority 2024, published 2025)
